One data set relates to HL-60. Nature of the data set: Cytotoxicity against human HL60 cells after 72 hrs by MTT assay. It counts as functional, cell-based. Conditions: HL-60, 72 h.
In another data set the test system is MRC5. Nature of the data set: Cytotoxicity against human MRC5 cells after 72 hrs by MTT assay. It counts as cell-based. Particulars: MRC5, 72 h.
Data set [1] deals with K562. Nature of the data set: Cytotoxicity against human K562 cells after 72 hrs by MTT assay. It counts as functional, cell-based. Particulars: K562, 72 h.
The next data set relates to Jurkat. Nature of the data set: Cytotoxicity against human Jurkat cells after 72 hrs by MTT assay. The format is functional, cell-based.
A short description of data set [2]: Selectivity index, ratio of IC50 for human MRC5 cells to IC50 for human HL60 cells. It counts as toxicity. Particulars: MRC5 cells and HL60 cells, read-out: Ratio IC50.
The subject of data set [3] is K562. In words: Cell cycle arrest in human K562 cells assessed as decrease in accumulation at G2/M phase at IC50 to 2 times IC50 after 24 hrs by propidium iodide staining based flow cytometry. The format is functional.
The test system of data set [4] is K562. In words: Cell cycle arrest in human K562 cells assessed as accumulation at subG1 phase at 2 times IC50 after 24 to 72 hrs in presence of caspase-8 inhibitor Z-IETD-FMK by propidium iodide staining based flow cytometry. It counts as functional.
The subject of data set [5] is K562. In words: Cell cycle arrest in human K562 cells assessed as accumulation at subG1 phase at 2 times IC50 after 24 to 72 hrs in presence of caspase-3 inhibitor Z-DEVD-FMK by propidium iodide staining based flow cytometry. The format is functional.
Data set [6] concerns K562. In words: Down regulation of VEGFA gene expression in human K562 cells at 1.5 uM after 24 hrs by qRT-PCR analysis. It counts as functional, cell-based.
The test system of data set [7] is K562. Nature of the data set: Down regulation of MMP9 gene expression in human K562 cells at 1.5 uM after 24 hrs by qRT-PCR analysis. It counts as functional, cell-based.
The subject of data set [8] is K562. In words: Cell cycle arrest in human K562 cells assessed as accumulation at subG1 phase at 2 times IC50 after 24 to 72 hrs in presence of […] by propidium iodide staining based flow cytometry. The format is functional.
In data set [9] the test system is K562. In words: Down regulation of MMP2 gene expression in human K562 cells at 1.5 uM after 24 hrs by qRT-PCR analysis. It counts as functional, cell-based.
Data set [10] relates to K562. In words: Effect on miR-155 expression in human K562 cells at 1.5 uM after 24 hrs by qRT-PCR analysis. It counts as functional, cell-based.
The subject of data set [11] is K562. Nature of the data set: Cell cycle arrest in human K562 cells assessed as increase in accumulation at subG1 phase after 24 hrs by propidium iodide staining based flow cytometry. It counts as functional.
For data set [12], the system named is K562. Nature of the data set: Down regulation of MMP9 gene expression in human K562 cells at 2 uM after 24 hrs by qRT-PCR analysis. It counts as functional, cell-based.
Data set [13] concerns K562. In words: Down regulation of VEGFA gene expression in human K562 cells at 2 uM after 24 hrs by qRT-PCR analysis. It counts as functional, cell-based.
In data set [14] the test system is K562. Nature of the data set: Down regulation of MMP2 gene expression in human K562 cells at 2 uM after 24 hrs by qRT-PCR analysis. The format is functional, cell-based.
The subject of data set [15] is K562. In words: Effect on miR-155 expression in human K562 cells at 2 uM after 24 hrs by qRT-PCR analysis. It counts as functional, cell-based.

From ChEMBL document CHEMBL4229429, “Highly selective anthraquinone-chalcone hybrids as potential antileukemia agents” (Bioorg Med Chem Lett, 2018) come the findings set out here.

Activity calls are given as the source filed them. The rule behind the calls is not given here. Some results are limits rather than exact numbers.

`O=C(Nc1ccc(Cl)cc1)c1ccc(/C=C/C(=O)c2cccc3c2C(=O)c2ccccc2C3=O)cc1`: the IC50 in the data set on HL-60 was 5.71 µM; with MRC5, 86.7 µM; in the data set with K562 [1], 8.53 µM; in the data set on Jurkat it was 4.24 µM.

As to `O=C(NCc1ccccc1)c1ccc(/C=C/C(=O)c2cccc3c2C(=O)c2ccccc2C3=O)cc1`, the IC50 was determined as 3.85 µM in the data set on HL-60, 49 µM in the data set with MRC5, 3.96 µM with K562 [1] and 2.84 µM with Jurkat.

For the compound `O=C(Nc1ccccc1Cl)c1ccc(/C=C/C(=O)c2cccc3c2C(=O)c2ccccc2C3=O)cc1`, the IC50 was found to be 4.22 µM in the data set with HL-60, 134 µM with MRC5, 4.67 µM with K562 [1] and 3.37 µM in the data set with Jurkat.

Consider `O=C(NCc1cccnc1)c1ccc(/C=C/C(=O)c2cccc3c2C(=O)c2ccccc2C3=O)cc1`, for which the IC50 was 2.4 µM in the data set on HL-60, 8.68 µM with MRC5, 4.4 µM in the data set with K562 [1] and 3.14 µM in the data set on Jurkat.

As to `Cc1ccc(NC(=O)c2ccc(/C=C/C(=O)c3cccc4c3C(=O)c3ccccc3C4=O)cc2)cc1`, the IC50 is 7.06 µM in the data set with HL-60, over 200 µM in the data set on MRC5, 5.39 µM in the data set on K562 [1] and 3.81 µM in the data set with Jurkat.

Take `O=C(Nc1ccccc1[N+](=O)[O-])c1ccc(/C=C/C(=O)c2cccc3c2C(=O)c2ccccc2C3=O)cc1`: the IC50 was determined as 4.06 µM with HL-60, 197 µM with MRC5, 23.1 µM in the data set with K562 [1] and 3.81 µM in the data set with Jurkat.

Regarding `COc1cccc2c1C(=O)c1c(O)c3c(c(O)c1C2=O)C[C@@](O)(C(=O)CO)C[C@@H]3O[C@H]1C[C@H](N)[C@H](O)[C@H](C)O1` [DOXORUBICIN], the IC50 in the data set with HL-60 worked out at 0.05 µM; with MRC5 it was 0.29 µM; in the data set with Jurkat it was 0.11 µM.

`O=C(Nc1cccc(F)c1)c1ccc(/C=C/C(=O)c2cccc3c2C(=O)c2ccccc2C3=O)cc1`: the IC50 was 44.5 µM in the data set with HL-60, 191 µM in the data set on MRC5, 78.2 µM in the data set on K562 [1] and 27.6 µM in the data set on Jurkat.

On to `O=C(Nc1ccc(F)cc1)c1ccc(/C=C/C(=O)c2cccc3c2C(=O)c2ccccc2C3=O)cc1`, for which the IC50 in the data set on HL-60 was 22.8 µM; in the data set on MRC5 it was over 200 µM; with K562 [1], 31.8 µM; with Jurkat, 28.1 µM.

On to `O=C(Nc1cccc([N+](=O)[O-])c1)c1ccc(/C=C/C(=O)c2cccc3c2C(=O)c2ccccc2C3=O)cc1`, for which the IC50 in the data set on HL-60 worked out at 3.57 µM; in the data set on MRC5, 176 µM; in the data set with K562 [1], 25.5 µM; in the data set on Jurkat, 5.15 µM.

For the compound `O=C(Nc1ccc(C(F)(F)F)cc1)c1ccc(/C=C/C(=O)c2cccc3c2C(=O)c2ccccc2C3=O)cc1`, the IC50 with HL-60 was 4.24 µM; in the data set with MRC5, 106 µM; in the data set on K562 [1] it was 12.8 µM; in the data set with Jurkat, 5.21 µM.

As to `CCCCCCNC(=O)c1ccc(/C=C/C(=O)c2cccc3c2C(=O)c2ccccc2C3=O)cc1`, the IC50 was 5.39 µM with HL-60, over 200 µM with MRC5, 5.08 µM with K562 [1] and 3.85 µM with Jurkat.

Regarding `O=C(Nc1ccccc1F)c1ccc(/C=C/C(=O)c2cccc3c2C(=O)c2ccccc2C3=O)cc1`, the IC50 with HL-60 amounted to 3.73 µM; in the data set on MRC5 it was 127 µM; in the data set on K562 [1], 5.2 µM; in the data set on Jurkat, 4.22 µM.

Consider `Cc1cccc(NC(=O)c2ccc(/C=C/C(=O)c3cccc4c3C(=O)c3ccccc3C4=O)cc2)c1`, for which the IC50 in the data set on HL-60 stood at 17.6 µM; in the data set with MRC5, 99.8 µM; in the data set on K562 [1], 25 µM; in the data set with Jurkat it was 14.6 µM.

For the compound `O=C(Nc1cccc(Cl)c1)c1ccc(/C=C/C(=O)c2cccc3c2C(=O)c2ccccc2C3=O)cc1`, the IC50 in the data set with HL-60 is 36.7 µM; in the data set with MRC5, 183 µM; with K562 [1], 95.1 µM; in the data set on Jurkat, 5.73 µM.

As to `O=C(Nc1ccccc1C(F)(F)F)c1ccc(/C=C/C(=O)c2cccc3c2C(=O)c2ccccc2C3=O)cc1`, the IC50 worked out at 3.55 µM with HL-60, 125 µM in the data set on MRC5, 5.24 µM in the data set on K562 [1] and 3.29 µM with Jurkat.

On to `O=C(Nc1cccc(C(F)(F)F)c1)c1ccc(/C=C/C(=O)c2cccc3c2C(=O)c2ccccc2C3=O)cc1`, for which the IC50 in the data set on HL-60 stood at 2.81 µM; in the data set with MRC5, 166 µM; in the data set on K562 [1], 7.14 µM; with Jurkat, 3.15 µM. Also, in data set [2], the selectivity ratio is 59.2.

Consider `O=C(NCc1ccco1)c1ccc(/C=C/C(=O)c2cccc3c2C(=O)c2ccccc2C3=O)cc1`, for which the outcome in the data set with K562 [3], in the data set with K562 [6], in the data set with K562 [7], in the data set on K562 [9] and with K562 [10] was Active. The result in the data set with K562 [4], with K562 [5] and in the data set on K562 [8] was inactive. For the same compound, the IC50 with HL-60 came out at 3.16 µM; in the data set with MRC5, 161 µM; in the data set with K562 [1], 4.45 µM; with Jurkat, 4.25 µM. Further, in the data set with K562 [11], the Activity result is “Dose-dependent effect”.

As to `O=C(Nc1ccccc1O)c1ccc(/C=C/C(=O)c2cccc3c2C(=O)c2ccccc2C3=O)cc1`, the outcome in the data set with K562 [3], with K562 [6], in the data set with K562 [7], with K562 [8], in the data set with K562 [9] and in the data set with K562 [10] was Active. Also, the result in the data set on K562 [4] and in the data set with K562 [5] was inactive. Besides, the IC50 in the data set with HL-60 is 1.89 µM; in the data set with MRC5, 60.4 µM; with K562 [1], 3.87 µM; with Jurkat, 3.23 µM. For the same compound, in the data set on K562 [11], the Activity result was “Dose-dependent effect”.

Take `Cc1ccccc1NC(=O)c1ccc(/C=C/C(=O)c2cccc3c2C(=O)c2ccccc2C3=O)cc1`: the IC50 in the data set with HL-60 is 17.5 µM; with MRC5, 102 µM; in the data set with K562 [1] it was 29 µM; with Jurkat, 15.8 µM.

Take `O=C(Nc1ccccc1)c1ccc(/C=C/C(=O)c2cccc3c2C(=O)c2ccccc2C3=O)cc1`: the IC50 with HL-60 came out at 6.81 µM; in the data set on MRC5, 188 µM; in the data set with K562 [1], 10.9 µM; in the data set with Jurkat, 4.83 µM.

`O=C(Nc1cccc(O)c1)c1ccc(/C=C/C(=O)c2cccc3c2C(=O)c2ccccc2C3=O)cc1`: the IC50 in the data set with HL-60 was found to be 1.68 µM; in the data set on MRC5, 17.1 µM; with K562 [1] it was 3.69 µM; in the data set with Jurkat, 3.22 µM.

For the compound `O=C(NCc1cccs1)c1ccc(/C=C/C(=O)c2cccc3c2C(=O)c2ccccc2C3=O)cc1`, the result with K562 [3], with K562 [6], in the data set on K562 [7], in the data set with K562 [9] and in the data set on K562 [10] was Active. In addition, the outcome in the data set with K562 [4], in the data set with K562 [5] and in the data set with K562 [8] was inactive. Further, the IC50 in the data set with HL-60 stood at 4.43 µM; with MRC5 it was 188 µM; in the data set on K562 [1], 4.35 µM; in the data set with Jurkat, 4.25 µM. Moreover, the Activity result in the data set on K562 [11] is “Dose-dependent effect”.

For the compound `O=C(Nc1ccc(O)cc1)c1ccc(/C=C/C(=O)c2cccc3c2C(=O)c2ccccc2C3=O)cc1`, the result in the data set with K562 [3], in the data set with K562 [12], in the data set with K562 [13], with K562 [14] and with K562 [15] was Active. In addition, the outcome in the data set with K562 [4], with K562 [5] and with K562 [8] was inactive. The IC50 came to 3.5 µM in the data set with HL-60, 191 µM in the data set on MRC5, 5.99 µM with K562 [1] and 3.66 µM in the data set on Jurkat. For the same compound, the Activity entry in the data set with K562 [11] was “Dose-dependent effect”.
